Patent US20060281807A1, “Quassinoid compositions for the treatment of cancer and other proliferative diseases” (Tapestry Pharmaceuticals, Inc., priority 2005, published 2006)
Converted amounts (≈) assume the structure as drawn. “And” between values parts separate entries of the source, which are not always exact repeats. Identical values can stand only once. Like-named read-outs stand apart in the source and are kept apart here.

Tests used:
[1] = tested on: L1210 (murine leukemia); test: Disk diffusion assay, zone of inhibition, L1210; format: cell-based; details: 1 mg/mL
Description: (§1) A disk diffusion assay was performed to define the differential cell killing ability of 15-O-(3′-hydroxy-3′-isopropyl-4′-methylpentanoyl)bruceolide. Seven cell types were assayed: L1210 (ATCC CCL-219) (murine leukemia), CCRF-CEM (ATCC CCL-119) (human leukemia), Colon 38 (murine colon adenocarcinoma), HCT116 (ATCC CCL-247) (human colorectal carcinoma), H125 (human lung carcinoma). The murine and human granulocyte/macrophage progenitor cell line (CFU-GM), served as controls.
(§2) Colon 38 cells (about 1 gram) were cut into small fragments in 15 mL of Hank's Balanced Salt Solution (HBSS) over a 100-mesh sieve and gently forced through by the scissors with HBSS constantly perfusing the sieve. The resulting material was then drawn into and out of a 5 mL syringe without a needle to further disperse the cell clumps. The cell solution was diluted and plated in 0.3% agarose in DMEM plus 10% heat-inactivated Bovine Calf Serum (BCS). For plating of all of the cell types (except controls), the 60 mm plates were first prepared with a hard agar bottom layer (0.6% agar in RPMI-1640 plus 15% BCS).
(§3) A 15 μl sample of each compound was dropped onto a 6.5 mm disk (Baxter filter disks). The disks were allowed to dry overnight and then placed close to the edge of a petri dish. Depending upon the cell type, the dishes were incubated for 7 to 10 days, and examined by an inverted stereo-microscope (10×) for measurement of the zone of inhibition. The zone of inhibition was measured from the edge of the filter disk to the beginning of normal-sized colony formation. The diameter of the filter disk, 6.5 mm, was arbitrarily taken as a zone of 200 units. Compounds that were selective for killing solid tumors, as compared to leukemia or normal cells (“solid tumor selective”) were defined as those compounds which produced a difference in zones between solid tumor cells and either normal or leukemia cells of at least 250 units. The results of this analysis are set forth in Table 4, which illustrates the relative diameters of the zones of inhibition by various drugs on the growth of the respective cell types at various drug dilutions.

[2] = tested on: Colon 38 (murine colon adenocarcinoma); test: Disk diffusion assay, zone of inhibition, Colon 38; zone differentials, potency and product; format: cell-based; parameters: key to C38ΔL1210 / C38ΔCFU: difference of zone of inhibition values, in zone units; details: for zone of inhibition, Colon 38: 1 mg/mL; for Sum: C38ΔL1210 plus C38ΔCFU; for C38ΔL1210: Colon38 vs L1210 leukemia; for Product: potency multiplied by zone differentials
Description: as §1, §2, §3
The degree of differential sensitivity of several inventive compounds was compared with respect to the Colon38 cell line, the L1210 cell line, and the control CFU-GM cell lines. The degree of differential sensitivity was estimated by calculating the difference between the zone of inhibition values, as determined in Example 6, for the solid tumor compared to either the leukemia (C38ΔL1210) or normal cell (C38ΔCFU).
The potency of each of several inventive compounds was determined by identifying the dilution required to yield an average zone of inhibition of 500 units for the Colon38 cell type. Then the potency and the zone differentials were multiplied to define a “product” (see Table 5), which can be used to rank the compounds tested for their potential for further development; the greater the product value the greater the probability of useful chemotherapeutic utility.

[3] = tested on: HCT116 (human colorectal carcinoma); test: Disk diffusion assay, zone of inhibition, HCT116; format: cell-based; details: 1 mg/mL
Description: as §1, §2
(§4) HCT116 and H125 cells were maintained in cell culture, and were removed from culture by a trypsin-collagenase-DNAase cocktail. The plating efficiencies of each cell type was sufficiently high that 30,000 cells in 3 mL produced the desired number of colonies (i.e., over 10,000 per plate) in 60 mm plates. This soft agar top layer (0.3% with the serum and media as above) plus the titrated tumor cells were poured into the plates and allowed to solidify.
as §3

[4] = tested on: H125 (human lung carcinoma); test: Disk diffusion assay, zone of inhibition, H125; format: cell-based; details: 1 mg/mL
Description: as §1, §2, §4, §3

[5] = tested on: CCRF-CEM (human leukemia); test: Disk diffusion assay, zone of inhibition, CCRF-CEM; format: cell-based; details: 1 mg/mL
Description: as §1, §2, §3

[6] = tested on: murine CFU-GM; test: Disk diffusion assay, zone of inhibition, murine CFU-GM; format: cell-based; details: 1 mg/mL
Description: as §1
For CFU-GM cells, the femoral marrow of BD2F1 mice was flushed with MEM alpha (2 mL per femur). The cells were passed through an 18 gauge needle twice and the monodispersed suspension was counted. A total of 1.5×10^6 cells were plated in 3 mL of 0.3% agar with the addition of 10% L cell conditioned media, which provided colony stimulating factor, in MEM-alpha plus 10% BCS. For human CFU-GM, the cells were obtained from Poietic Technologies, Inc. (Gaithersburg, Md.) and washed twice with PBS before being titered and added to the agar mixture. The same cell number, culture conditions, and conditioning factors used with respect to the murine CFU-GM cells were used with the human cells, except that the cultures were assessed after 10 days of incubation.
as §3

[7] = tested on: HCT-116 cells; test: HCT-116 cytotoxicity, viable cell count by trypan blue; format: cell-based, human; details: for IC90/IC50: HCT-116; for IC50 / IC90: HCT-116, 3 days with compound, viable cells, by interpolation
[8] = tested on: HCT-116 cells; test: Clonogenic assay, HCT-116; format: cell-based, human; details: colonies at 7 days
Description: A clonogenic assay was performed using HCT-116 cells. Specifically, HCT-116 cells were seeded at 200 to 20,000 cells in 60 mm dishes. […] At either 2 hours or 24 hours following drug administration, the drug-containing media was removed, and fresh media without drug was added. In addition, one group of cells was subjected to continuous drug exposure for the entire incubation period. The dishes were incubated for 7 days (at 37° C. and 5% CO2), media was removed, and the colonies were stained with methylene blue. Colonies containing 50 cells or more were counted. The results were normalized to an untreated control. Plating efficiency for the untreated cells was about 90%. Repeat experiments also were carried out to define the cell survival range between 1 (100%) and 10^−3 (0.1%) survival. A survival rate of 10^−1 was chosen as the minimal level that would be required in vivo to achieve therapeutic efficacy against HCT-116 cells in tumor-bearing mice. The clonogenic dose response to 15-O-(3′-hydroxy-3′-isopropyl-4′-methylpentanoyl)bruceolide is illustrated in FIG. 4. The clonogenic dose response to 15-(3-isopropyl-4-methyl-2-pentenoyl)-bruceolide is illustrated in FIG. 5.

[9] = Maximum tolerated dose in mice; details: intravenous, first stage, one mouse per dose
Description: Formulations containing 15-O-(3′-hydroxy-3′-isopropyl-4′-methylpentanoyl)bruceolide, 15-(3-isopropyl-4-methyl-2-pentenoyl)-bruceolide, and, for comparative purposes, bruceantin, or peninsularinone were prepared by solubilizing each compound in up to 100 mg/mL of ethanol. These solutions were diluted 1:1 with a stabilizer (Cremophor/propylene glycol). The solutions were then diluted in saline (1:10 minimum).
The maximum tolerated dose (MTD) was determined by a two-stage experiment. In the first stage, between 1 and 10 mg/mL of the formulation was prepared as described above. Next, 0.25 mL of the formulation was injected intravenously into one 20 gram mouse (0.75 mg/mouse). If the animal died within 30 days of injection, a series of subsequent 2-fold dilutions were administered to individual mice until an MTD was defined. […] The second stage of the study involved increasing the number of mice per dose to four, and retesting four dilutions that bracket the MTD from the individual mouse study. The four dilutions were the MTD, a dosage twice the MTD, a dosage ½ the MTD, and a dosage ¼ the MTD.

[10] = no dilution, 15 μl on disk, 6.5 mm = 200 units
[11] = difference between zone of inhibition values

SMILES | zone of inhibition, L1210 ([1]; dilution 1/100) [units] | zone of inhibition, L1210 ([1]; dilution 1/1000) | zone of inhibition, L1210 [1, 10] [units] | zone of inhibition, Colon 38 ([2]; dilution 1/10) | zone of inhibition, Colon 38 ([2]; dilution 1/100) [units] | zone of inhibition, Colon 38 ([2]; dilution 1/1000) | zone of inhibition, Colon 38 [2, 10] [units] | Sum [2] | C38ΔL1210 [2, 11] | Product [2] | zone of inhibition, H-116 ([3]; dilution 1/10) [units] | zone of inhibition, H-116 ([3]; dilution 1/100) [units] | zone of inhibition, H-116 ([3]; dilution 1/1000) [units] | zone of inhibition, H-116 [3, 10] [units] | zone of inhibition, H-125 M ([4]; dilution 1/10) [units] | zone of inhibition, H-125 M ([4]; dilution 1/100) [units] | zone of inhibition, H-125 M ([4]; dilution 1/1000) [units] | zone of inhibition, H-125 M [4, 10] [units] | zone of inhibition, CEM ([5]; dilution 1/10) [units] | zone of inhibition, CEM ([5]; dilution 1/100) [units] | also measured
CC1=CC(=O)[C@@H](O)[C@]2(C)[C@H]3[C@@]4(O)OC[C@]35[C@H]([C@@H](C)[C@H]4O)[C@@H](O)C(=O)O[C@@H]5C[C@@H]12 [Glaucarubolone, glaucarubolone] | 0 | 0 units | 400 | >1000 units and 600 units | 400 | 0 units | >1000 | 1150 and 800 | 550 and 400 | 4600 and 3600 | 600 | 0 | 0 | >1000 | 700 | 0 | 0 | >1000 | 600 | 0 | zone of inhibition, Colon 38 ([2]; dilution 1/40): 400 units; C38ΔCFU ([2]; difference between zone of inhibition values, Colon38 vs normal cell CFU-GM): 600 and 400; zone of inhibition, CEM ([5]; dilution 1/1000): 0 units; zone of inhibition, CEM [5, 10]: 900 units; zone of inhibition, murine CFU-GM ([6]; dilution 1/10): 0 units; zone of inhibition, murine CFU-GM ([6]; dilution 1/40): 0 units; zone of inhibition, murine CFU-GM ([6]; dilution 1/100): 0 units; zone of inhibition, murine CFU-GM ([6]; dilution 1/1000): 0 units; zone of inhibition, murine CFU-GM [6, 10]: 50 units; IC90/IC50 [7]: 58; IC50 ([7]; Homo sapiens, 72 h, read-out: IC50): 0.04 µg/mL (≈ 0.101 µM); IC90 ([7]; Homo sapiens, 72 h, read-out: IC90): 2.3 µg/mL (≈ 5.83 µM); Concentration Required for 10^−1 Survival Fraction ([8]; HCT-116, 2 Hour Exposure): >10 μg/mL; Concentration Required for 10^−1 Survival Fraction ([8]; HCT-116, 24 Hour Exposure): 1 × 10^0 μg/mL; Concentration Required for 10^−1 Survival Fraction ([8]; HCT-116, Continuous Exposure): 2 × 10^−2 μg/mL
CC[C@@](O)(CC(=O)O[C@@H]1C(=O)O[C@@H]2C[C@@H]3C(C)=CC(=O)[C@H](O)[C@]3(C)[C@H]3[C@]4(O)OC[C@]32[C@@H]1[C@@H](C)[C@H]4O)C(C)C [Peninsularinone, peninsularinone] | 700 | 300 units and 200 units | >1000 | >1000 units | >1000 | 800 units and 550 units | >1000 | 1100 and 550 | 450 and 250 | 6600 and 3575 | >1000 | 950 | 450 | >1000 | >1000 | 1000 | 400 | >1000 | >1000 | 800 | zone of inhibition, L1210 ([1]; dilution 1/10): >1000 units; zone of inhibition, L1210 ([1]; dilution 1/4000): 50 units; zone of inhibition, L1210 ([1]; dilution 1/10000): 100 units; zone of inhibition, Colon 38 ([2]; dilution 1/4000): 250 units; zone of inhibition, Colon 38 ([2]; dilution 1/10000): 200 units; zone of inhibition, CEM ([5]; dilution 1/1000): 500 units; zone of inhibition, CEM [5, 10]: >1000 units; zone of inhibition, murine CFU-GM ([6]; dilution 1/10): >1000 units; zone of inhibition, murine CFU-GM ([6]; dilution 1/100): 450 units; zone of inhibition, murine CFU-GM ([6]; dilution 1/4000): 0 units; zone of inhibition, murine CFU-GM ([6]; dilution 1/10000): 0 units; zone of inhibition, murine CFU-GM [6, 10]: >1000 units; IC90/IC50 [7]: 13; IC50 [7]: 0.0012 µg/mL (≈ 0.00224 µM); IC90 [7]: 0.015 µg/mL (≈ 0.028 µM); Concentration Required for 10^−1 Survival Fraction ([8]; HCT-116, 2 Hour Exposure): >10 μg/mL; Concentration Required for 10^−1 Survival Fraction ([8]; HCT-116, 24 Hour Exposure): 1 × 10^−2 μg/mL; Concentration Required for 10^−1 Survival Fraction ([8]; HCT-116, Continuous Exposure): 1 × 10^−3 μg/mL; maximum tolerated dose, Dose - 1 Mouse [9]: 0.01 mg/mouse and 0.45 mg/kg
